Measured values: PubChem BioAssay (NCI)
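Abbreviation: GI50, concentration required for 50% inhibition of growth. Definition used: TGI = concentration required for complete inhibition of growth.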

Columns and labels:
Test in all cases: inhibition of tumour cell growth, NCI panel, 384-well format
786-0 renal = tested on: 786-0 renal
A498 renal = tested on: A498 renal
A549 NSCLC = tested on: A549 NSCLC
ACHN renal = tested on: ACHN renal
BT-549 breast = tested on: BT-549 breast
CAKI-1 renal = tested on: CAKI-1 renal
CCRF-CEM leukemia = tested on: CCRF-CEM leukemia
COLO 205 colon = tested on: COLO 205 colon
DU-145 prostate = tested on: DU-145 prostate
EKVX NSCLC = tested on: EKVX NSCLC
HCC-2998 colon = tested on: HCC-2998 colon
HCT-116 colon = tested on: HCT-116 colon
HCT-15 colon = tested on: HCT-15 colon
HL-60(TB) leukemia = tested on: HL-60(TB) leukemia
HOP-62 NSCLC = tested on: HOP-62 NSCLC
HOP-92 NSCLC = tested on: HOP-92 NSCLC
HS 578T breast = tested on: HS 578T breast
HT29 colon = tested on: HT29 colon
IGROV1 ovarian = tested on: IGROV1 ovarian
K-562 leukemia = tested on: K-562 leukemia
KM12 colon = tested on: KM12 colon
LOX IMVI melanoma = tested on: LOX IMVI melanoma
M14 melanoma = tested on: M14 melanoma
MALME-3M melanoma = tested on: MALME-3M melanoma
MCF7 breast = tested on: MCF7 breast
MDA-MB-231 breast = tested on: MDA-MB-231 breast
MDA-MB-435 melanoma = tested on: MDA-MB-435 melanoma
MDA-MB-468 breast = tested on: MDA-MB-468 breast
MOLT-4 leukemia = tested on: MOLT-4 leukemia
NCI-H226 lung = tested on: NCI-H226 lung
NCI-H23 lung = tested on: NCI-H23 lung
NCI-H322M lung = tested on: NCI-H322M lung
NCI-H460 NSCLC = tested on: NCI-H460 NSCLC
NCI-H522 lung = tested on: NCI-H522 lung
NCI/ADR-RES ovarian = tested on: NCI/ADR-RES ovarian
OVCAR-3 ovarian = tested on: OVCAR-3 ovarian
OVCAR-4 ovarian = tested on: OVCAR-4 ovarian
OVCAR-8 ovarian = tested on: OVCAR-8 ovarian
PC-3 prostate = tested on: PC-3 prostate
RPMI-8226 leukemia = tested on: RPMI-8226 leukemia
RXF 393 renal = tested on: RXF 393 renal
SF-268 CNS = tested on: SF-268 CNS
SF-295 CNS = tested on: SF-295 CNS
SF-539 CNS = tested on: SF-539 CNS
SK-MEL-28 melanoma = tested on: SK-MEL-28 melanoma
SK-MEL-5 melanoma = tested on: SK-MEL-5 melanoma
SK-OV-3 ovarian = tested on: SK-OV-3 ovarian
SN12C renal = tested on: SN12C renal
SNB-19 CNS = tested on: SNB-19 CNS
SNB-75 CNS = tested on: SNB-75 CNS
SR leukemia = tested on: SR leukemia
SW-620 colon = tested on: SW-620 colon
T-47D breast = tested on: T-47D breast
TK-10 renal = tested on: TK-10 renal
U251 glioblastoma = tested on: U251 glioblastoma
UACC-62 melanoma = tested on: UACC-62 melanoma
UO-31 renal = tested on: UO-31 renal

Cc1ccc(NC(=O)c2cccc(C(C)(C)C#N)c2)cc1Nc1ccc2ncn(C)c(=O)c2c1 showed a GI50 ([…]-0 renal) of 4.85 µM, a TGI (786-0 renal) greater than 100 µM and a GI50 (A498 renal) of 5.55 µM. For the same molecule, the TGI (A498 renal) was greater than 100 µM, the GI50 (A549 NSCLC) was 3.11 µM and the TGI (A549 NSCLC) was greater than 100 µM. It also gave a GI50 (ACHN renal) of 2.22 µM, a TGI (ACHN renal) greater than 100 µM and a GI50 (BT-549 breast) of 6.99 µM. The TGI (BT-549 breast) was greater than 100 µM, the GI50 (CAKI-1 renal) was 0.343 µM and the TGI (CAKI-1 renal) was greater than 100 µM. It also gave a GI50 (CCRF-CEM leukemia) of 2.19 µM, a TGI (CCRF-CEM leukemia) of 9.99 µM and a GI50 (COLO 205 colon) of 0.0246 µM. The TGI (COLO 205 colon) was 8.52 µM, the GI50 (DU-145 prostate) was 3.63 µM and the TGI (DU-145 prostate) was greater than 100 µM. The GI50 (EKVX NSCLC) was 6.79 µM, the TGI (EKVX NSCLC) was greater than 100 µM and the GI50 (HCC-2998 colon) was 0.0525 µM. It also gave a TGI (HCC-2998 colon) of 1.84 µM, a GI50 (HCT-116 colon) of 0.136 µM and a TGI (HCT-116 colon) of 13.4 µM. The GI50 (HCT-15 colon) was 2.91 µM, the TGI (HCT-15 colon) was greater than 100 µM and the GI50 (HL-60(TB) leukemia) was 0.0135 µM. The TGI (HL-60(TB) leukemia) was 0.148 µM, the GI50 (HOP-62 NSCLC) was 1.8 µM and the TGI (HOP-62 NSCLC) was greater than 100 µM. For the same molecule, the GI50 (HOP-92 NSCLC) was 0.593 µM, the TGI (HOP-92 NSCLC) was 2.55 µM and the GI50 (HS 578T breast) was 1.92 µM. It also gave a TGI (HS 578T breast) of 9.66 µM, a GI50 (HT29 colon) of 0.0579 µM and a TGI (HT29 colon) greater than 100 µM. For the same molecule, the GI50 (IGROV1 ovarian) was 0.935 µM, the TGI (IGROV1 ovarian) was 7 µM and the GI50 (K-562 leukemia) was 0.232 µM. The TGI (K-562 leukemia) was 1.06 µM, the GI50 (KM12 colon) was 0.803 µM and the TGI (KM12 colon) was greater than 100 µM. The GI50 (LOX IMVI melanoma) was 0.0358 µM, the TGI (LOX IMVI melanoma) was 1.34 µM and the GI50 (M14 melanoma) was 0.0119 µM. For the same molecule, the TGI (M14 melanoma) was 0.106 µM, the TGI (MALME-3M melanoma) was 0.0178 µM and the GI50 (MCF7 breast) was 5.97 µM. The TGI (MCF7 breast) was greater than 100 µM, the GI50 (MDA-MB-231 breast) was 0.036 µM and the TGI (MDA-MB-231 breast) was 27.3 µM. The GI50 (MDA-MB-435 melanoma) was 0.0617 µM, the TGI (MDA-MB-435 melanoma) was greater than 100 µM and the GI50 (MDA-MB-468 breast) was 3.53 µM. For the same molecule, the TGI (MDA-MB-468 breast) was 44.1 µM, the GI50 (MOLT-4 leukemia) was 1.86 µM and the TGI (MOLT-4 leukemia) was 6.08 µM. It also gave a GI50 (NCI-H226 lung) of 2.01 µM, a TGI (NCI-H226 lung) greater than 100 µM and a GI50 (NCI-H23 lung) of 0.048 µM. For the same molecule, the TGI (NCI-H23 lung) was 1.43 µM, the GI50 (NCI-H322M lung) was 2.62 µM and the TGI (NCI-H322M lung) was greater than 100 µM. The GI50 (NCI-H460 NSCLC) was 1.47 µM, the TGI (NCI-H460 NSCLC) was greater than 100 µM and the GI50 (NCI-H522 lung) was 4.09 µM. It also gave a TGI (NCI-H522 lung) greater than 100 µM, a GI50 (NCI/ADR-RES ovarian) of 3.06 µM and a TGI (NCI/ADR-RES ovarian) of 14.1 µM. It also gave a GI50 (OVCAR-3 ovarian) of 3.22 µM, a TGI (OVCAR-3 ovarian) greater than 100 µM and a GI50 (OVCAR-4 ovarian) of 5.43 µM. For the same molecule, the TGI (OVCAR-4 ovarian) was greater than 100 µM, the GI50 (OVCAR-8 ovarian) was 2.85 µM and the TGI (OVCAR-8 ovarian) was greater than 100 µM. It also gave a GI50 (PC-3 prostate) of 8.34 µM, a TGI (PC-3 prostate) greater than 100 µM and a GI50 (RPMI-8226 leukemia) of 1.1 µM. It also gave a TGI (RPMI-8226 leukemia) of 3.33 µM, a GI50 (RXF 393 renal) of 5.05 µM and a TGI (RXF 393 renal) greater than 100 µM. It also gave a GI50 (SF-268 CNS) of 4.8 µM, a TGI (SF-268 CNS) greater than 100 µM and a GI50 (SF-295 CNS) of 4.63 µM. The TGI (SF-295 CNS) was greater than 100 µM, the GI50 (SF-539 CNS) was 7.1 µM and the TGI (SF-539 CNS) was greater than 100 µM. For the same molecule, the GI50 (SK-MEL-28 melanoma) was 0.0122 µM, the TGI (SK-MEL-28 melanoma) was 0.0749 µM and the GI50 (SK-MEL-5 melanoma) was 0.0419 µM. For the same molecule, the TGI (SK-MEL-5 melanoma) was 1.78 µM, the GI50 (SK-OV-3 ovarian) was 4.9 µM and the TGI (SK-OV-3 ovarian) was greater than 100 µM. It also gave a GI50 (SN12C renal) of 0.698 µM, a TGI (SN12C renal) greater than 100 µM and a GI50 (SNB-19 CNS) of 4.82 µM. For the same molecule, the TGI (SNB-19 CNS) was greater than 100 µM, the GI50 (SNB-75 CNS) was 7.19 µM and the TGI (SNB-75 CNS) was greater than 100 µM. The GI50 (SR leukemia) was 0.153 µM, the TGI (SR leukemia) was 0.908 µM and the GI50 (SW-620 colon) was 0.798 µM. The TGI (SW-620 colon) was greater than 100 µM, the GI50 (T-47D breast) was 4.42 µM and the TGI (T-47D breast) was greater than 100 µM. The GI50 (TK-10 renal) was 2.92 µM, the TGI (TK-10 renal) was 60.6 µM and the GI50 (U251 glioblastoma) was 4.36 µM. It also gave a TGI (U251 glioblastoma) greater than 100 µM, a GI50 (UACC-62 melanoma) of 0.0105 µM and a TGI (UACC-62 melanoma) of 0.13 µM. For the same molecule, the GI50 (UO-31 renal) was 0.527 µM and the TGI (UO-31 renal) was 5.68 µM.
